Test results taken from publication PMC11597202, “Novel Thiazole-Fused [4,5-g] or [5,4-g]Quinazolin-8-ones and Their Quinazoline Analogues: Synthesis and Biological Evaluation” (Pharmaceuticals, 2024).

Legend:
[1] = In vitro cytotoxic assay, MCF-7; format: cell-based; conditions: human, MCF-7 cells (breast cancer cell line); further: 0.1-25 µM tested
Description: Skin normal fibroblastic cells were purchased from Lonza (Basel, Switzerland). […] All culture media were supplemented by 10% of FBS, 1% of penicillin–streptomycin and 2 mM glutamine.
Chemicals were solubilized in DMSO at a concentration of 10 mM (stock solution) and diluted in culture medium to the desired final concentrations. […] Cells were plated in 96-well plates (4000 cells/well). Twenty-four hours after seeding, the cells were exposed to chemicals. […] Image acquisition and analysis were performed using a Cellomics ArrayScan VTI/HCS Reader (ThermoScientific, Les Ulis, France). The survival percentages were calculated as the percentage of cell number after compound treatment over cell number after DMSO treatment. The relative IC50 values were calculated using the curve fitting XLfit 5.5.0.5 (idbs) integrated in Microsoft Excel as an add-on.
4.3.1. Cell culture. Skin normal fibroblastic cells are purchased from Lonza (Basel, Switzerland). Huh7- […]
from ATCC (American Type Culture Collection). […]
supplemented by 10% of FBS, 1% of penicillin-streptomycin and 2 mM glutamine.
4.3.2. Cytotoxic assay. Chemicals were solubilized in DMSO at a concentration of 10 mM (stock solution) and diluted in culture medium to the desired final concentrations. The dose effect cytotoxic assays (IC50 determination) were performed by increasing the concentrations of each chemical (final well […]
Cells were plated in 96-well plates
(4000 cells/well). Twenty-four hours after seeding, cells were exposed to chemicals. After 48h of treatment, cells were washed in PBS and fixed in cooled 90% ethanol/5% acetic acid for 20 min and the […]
Image acquisition and analysis were performed using a Cellomics ArrayScan VTI/HCS Reader (ThermoScientific). The survival percentages were calculated as the percentage of cell number after compound treatment over cell number after DMSO treatment. The relative IC50 were calculated using the curve fitting XLfit 5.5.0.5 (idbs) integrated in Microsoft Excel as an add-on. The 4 Parameter Logistic Model or Sigmoidal Dose-Response Model describing the sigmoid-shaped response pattern was used (fit = (A+[(B-A)/(1+[(C/x)^D])]) where fit is the response and X is the tested concentration of the compound. The lower asymptote is A (also referred to as the bottom of the curve or lower plateau or the min) and the upper asymptote is B (also referred to as the top of the curve or upper plateau or the max). The slope of the linear part of the curve is described by the factor D. The parameter C is the concentration corresponding to the response midway between A and B. C is called “relative IC50” because it refers to the maximum response obtained by a […]
The results are represented as the mean ± standard error (SE) calculated from at least three independent experiments.

CLK1 = target: T1, CLK1 (Homo sapiens, UniProt P49759); test: ADP-Glo kinase inhibition assay, CLK1; format: biochemical; conditions: percentage of maximum activity of the DMSO control, mean n = 2, 10 µM ATP, read-out: Residual activity CLK1; for remaining activity at 1 µM: 1 μM compound; for remaining activity at 10 µM: 10 μM compound
T1 construct: host or cells: Sf9 insect cells (baculovirus)
T1 sequence (P49759 whole entry): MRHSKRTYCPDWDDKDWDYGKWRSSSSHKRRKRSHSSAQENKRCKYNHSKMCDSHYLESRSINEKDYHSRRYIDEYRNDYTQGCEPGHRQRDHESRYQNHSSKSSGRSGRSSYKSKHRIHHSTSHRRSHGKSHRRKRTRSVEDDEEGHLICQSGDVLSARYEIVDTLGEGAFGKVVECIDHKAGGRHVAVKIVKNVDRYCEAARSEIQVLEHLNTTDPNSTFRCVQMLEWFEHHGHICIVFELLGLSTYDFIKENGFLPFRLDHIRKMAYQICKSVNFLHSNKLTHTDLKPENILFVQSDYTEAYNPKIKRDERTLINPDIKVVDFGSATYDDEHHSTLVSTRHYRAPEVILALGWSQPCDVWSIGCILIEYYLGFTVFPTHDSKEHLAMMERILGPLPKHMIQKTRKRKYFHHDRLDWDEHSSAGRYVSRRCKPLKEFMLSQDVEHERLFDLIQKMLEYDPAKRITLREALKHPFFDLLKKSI
Description: Kinase enzymatic activities were assayed in 384-well plates using the ADP-Glo^TM assay kit (Promega, Madison, WI, USA) according to the recommendations of the manufacturer. This luminescent ADP detection assay was described by Zegzouti and co-workers and provides a homogeneous and high-throughput screening method to measure kinase activity by quantifying the amount of ADP produced during a kinase reaction. Briefly, the reactions were carried out in a final volume of 6 µL for 30 min at 30 °C in an appropriate kinase buffer (10 mM MgCl2, 1 mM EGTA, 1 mM DTT, 25 mM Tris-HCl pH 7.5, 50 µg/mL heparin), with peptide or protein as substrate in the presence of 10 µM ATP. Peptide substrates were obtained from ProteoGenix (Schiltigheim, France) or Sigma for Histone H1, Poly (L-glutamic acid–L-tyrosine) sodium salt, Casein and MBP. After that, 6 µL of ADP-Glo^TM Kinase Reagent was added to stop the kinase reaction. After an incubation time of 50 min at room temperature (rt), 12 µL of Kinase Detection Reagent was added for one hour at rt. The transmitted signal was measured using the Envision (PerkinElmer, Waltham, MA, USA) microplate luminometer and expressed as Relative Light Units (RLUs). Kinase activities are expressed as percentages of remaining kinase activities detected after treatment with 1 or 10 µM of the tested compounds. The maximum kinase activity was measured in the absence of inhibitor but with an equivalent dose of DMSO (solvent of the tested compounds).
3. Kinase inhibition assays
Kinase enzymatic activities were assayed in 384-well plates using the ADP-GloTM assay kit (Promega, Madison, WI) according to the recommendations of the manufacturer. This luminescent ADP detection assay was described by Zegzouti and co-workers and provides a homogeneous and high-throughput screening method to measure kinase activity by quantifying the amount of ADP produced during a kinase reaction. Briefly, the reactions were carried out in a final volume of 6 µl for 30 min at 30°C in appropriate kinase buffer (10 mM MgCl2, 1 mM EGTA, 1 mM DTT, 25 mM Tris-HCl pH 7.5, 50 µg/mL heparin), with peptide or protein as substrate in the presence of 10 µM ATP. Peptide substrates were obtained from ProteoGenix (Schiltigheim, France) or Sigma for Histone H1, Poly (L-glutamic acid – L-tyrosine) sodium salt, Casein and MBP. After that, 6 µL of ADP-GloTM Kinase Reagent was added to stop the kinase reaction. After an incubation time of 50 min at room temperature (rt), 12 µL of Kinase Detection Reagent was added for 1 h at rt. The transmitted signal was measured using the Envision (PerkinElmer, Waltham, MA) microplate luminometer and expressed in Relative Light Unit (RLU). Kinase activities are expressed in percentages of remaining kinase activities detected after treatment with 1 or 10 µM of the tested compounds. The maximal kinase activity is measured in the absence of inhibitor but with an equivalent dose of DMSO (solvent of the tested compounds).
Table. Human protein kinases tested in the panel: CDK9, HASPIN, PIM1, GSK3b, CK1ε, JAK3, CLK1 […]
1 Peptide substrates were obtained from ProteoGenix (Schiltigheim, France) or Sigma for Histone H1, Poly (L-glutamic acid – L-tyrosine) sodium salt, Casein and MBP; 2 “Sp” stands for phosphorylated serine.
Controls inhibitors: To validate each kinase assay, the following model inhibitors were used under the same conditions than the tested compounds: Staurosporine from Streptomyces sp.

remaining activity at 1 µM (CLK1) | remaining activity at 10 µM (CLK1) | SMILES | IC50 at 48 h [1]
89% | 52% | COC(=N)c1nc2cc3c(Nc4ccc(OC)cc4F)ncnc3cc2s1 [Compound 15a, Methyl 8-[(2-fluoro-4-methoxyphenyl)amino]thiazolo[4,5-g]quinazoline-2-carbimidate] | > 25 µM
75% | 27% | COC(=N)c1nc2ccc3ncn(Cc4ccccc4)c(=O)c3c2s1 [Compound I, methyl 8-benzyl-9-oxo-8,9-dihydrothiazolo[5,4-f]quinazoline-2-carbimidate, reference compound] | 17 µM
102% | 105% | COC(=N)c1nc2cc3ncnc(Nc4ccc(OC)cc4F)c3cc2s1 [Compound 15b, Methyl 8-[(2-fluoro-4-methoxyphenyl)amino]thiazolo[5,4-g]quinazoline-2-carbimidate] | –

Continued, compound first:

SMILES | remaining activity at 1 µM (CLK1) | remaining activity at 10 µM (CLK1) | IC50 at 48 h [1]
COC(=N)c1nc2cc3ncn(Cc4ccccc4)c(=O)c3cc2s1 [Compound 6b, Methyl 7-benzyl-8-oxo-7,8-dihydrothiazolo[5,4-g]quinazoline-2-carbimidate] | 100% | 102% | 1 µM
COC(=N)c1nc2c(ccc3c(=O)n(Cc4ccccc4)cnc32)s1 [Compound 6c, Methyl 7-benzyl-6-oxo-6,7-dihydrothiazolo[5,4-h]quinazoline-2-carbimidate] | 95% | 84% | 7 µM
COC(=N)c1nc2ccc3c(=O)n(Cc4ccccc4)cnc3c2s1 [Compound 6d, Methyl 7-benzyl-6-oxo-6,7-dihydrothiazolo[4,5-h]quinazoline-2-carbimidate] | 89% | 73% | 8 µM
COC(=N)c1nc2ccc3ncnc(Nc4ccc(OC)cc4F)c3c2s1 [Compound II, methyl 9-[(2-fluoro-4-methoxyphenyl)amino]thiazolo[5,4-f]quinazoline-2-carbimidate, reference compound] | – | – | 5 µM
COC(=N)c1nc2cc3c(=O)n(Cc4ccccc4)cnc3cc2s1 [Compound 6a, Methyl 7-benzyl-8-oxo-7,8-dihydrothiazolo[4,5-g]quinazoline-2-carbimidate] | 97% | 96% | 17 µM
